Source: ChEMBL document CHEMBL5376003, “Structure-Activity Relationship of FL118 Platform Position 7 Versus Position 9-Derived Compounds and Their Mechanism of Action and Antitumor Activity” (J Med Chem, 2023)
Active and inactive are the calls of the source. The rule behind the calls is not given here.

Experiments:
[1] = tested on: HCT-116; test: Induction of apoptosis in human HCT-116 cells assessed as downregulation of DTYMK gene expression at 10 to 500 nM incubated for 6 to 48 hrs by RNA analysis; type: functional, cell-based; details: dose 10-500 nM, time 6-48 hrs
[2] = tested on: HCT-116; test: Induction of apoptosis in human HCT-116 cells assessed as downregulation of NUP43 gene expression at 10 to 500 nM incubated for 6 to 48 hrs by RNA analysis; type: functional, cell-based; details: dose 10-500 nM, time 6-48 hrs
[3] = tested on: HCT-116; test: Induction of apoptosis in human HCT-116 cells assessed as downregulation of DCTPP1 gene expression at 10 to 500 nM incubated for 6 to 48 hrs by RNA analysis; type: functional, cell-based; details: dose 10-500 nM, time 6-48 hrs
[4] = tested on: HCT-116; test: Induction of apoptosis in human HCT-116 cells assessed as modulation of DDX55 mRNA expression at 10 to 500 nM incubated for 6 to 48 hrs by RNA analysis; type: functional, cell-based; details: dose 10-500 nM, time 6-48 hrs
[5] = tested on: HeLa; test: Growth inhibition of human HeLa cells incubated for 48 hrs by MTT reagent based ELISA reader analysis; type: functional, cell-based
[6] = tested on: HCT-116; test: Induction of apoptosis in human HCT-116 cells assessed as modulation of DDX42 mRNA expression at 10 to 500 nM incubated for 6 to 48 hrs by RNA analysis; type: functional, cell-based; details: dose 10-500 nM, time 6-48 hrs
[7] = tested on: HCT-116; test: Induction of apoptosis in human HCT-116 cells assessed as increase in intracellular ROS level incubated for 48 hrs by DCFH-DA staining based fluorescence microscopy; type: functional, cell-based
[8] = tested on: HCT-116; test: Induction of apoptosis in human HCT-116 cells assessed as downregulation of BIRC5 mRNA expression at 10 to 500 nM incubated for 6 to 48 hrs by RNA analysis; type: functional, cell-based; details: dose 10-500 nM, time 6-48 hrs
[9] = tested on: HCT-116; test: Induction of apoptosis in human HCT-116 cells assessed as upregulation of BIK mRNA expression at 10 to 500 nM incubated for 6 to 48 hrs by RNA analysis; type: functional, cell-based; details: dose 10-500 nM, time 6-48 hrs
[10] = tested on: HCT-116; test: Induction of apoptosis in human HCT-116 cells assessed as modulation of TOP1 mRNA expression at 10 to 500 nM incubated for 6 to 48 hrs by RNA analysis; type: functional, cell-based; details: dose 10-500 nM, time 6-48 hrs
[11] = tested on: HCT-116; test: Induction of apoptosis in human HCT-116 cells assessed as upregulation of ATF3 mRNA expression at 10 to 500 nM incubated for 6 to 48 hrs by RNA analysis; type: functional, cell-based; details: dose 10-500 nM, time 6-48 hrs
[12] = tested on: HCT-116; test: Induction of apoptosis in human HCT-116 cells assessed as modulation of TOP2B mRNA expression at 10 to 500 nM incubated for 6 to 48 hrs by RNA analysis; type: functional, cell-based; details: dose 10-500 nM, time 6-48 hrs
[13] = tested on: HCT-116; test: Induction of apoptosis in human HCT-116 cells assessed as upregulation of POLR2A mRNA expression at 10 to 500 nM incubated for 6 to 48 hrs by RNA analysis; type: functional, cell-based; details: dose 10-500 nM, time 6-48 hrs
[14] = tested on: HCT-116; test: Growth inhibition of human HCT-116 cells incubated for 48 hrs by MTT reagent based ELISA reader analysis; type: functional, cell-based; details: HCT-116, 48 h
[15] = tested on: MCF7; test: Growth inhibition of human MCF7 cells incubated for 48 hrs by MTT reagent based ELISA reader analysis; type: functional, cell-based; details: MCF7, 48 h
[16] = tested on: HCT-116; test: Activation of innate immune response in human HCT-116 cells assessed as upregulation of IL-12B gene expression at 10 to 500 nM incubated for 6 to 48 hrs by RNA analysis; type: functional, cell-based; details: dose 10-500 nM, time 6-48 hrs
[17] = tested on: HCT-116; test: Induction of apoptosis in human HCT-116 cells assessed as upregulation of XPC mRNA expression at 10 to 500 nM incubated for 6 to 48 hrs by RNA analysis; type: functional, cell-based; details: dose 10-500 nM, time 6-48 hrs
[18] = tested on: HCT-116; test: Induction of apoptosis in human HCT-116 cells assessed as downregulation of HK2 gene expression at 10 to 500 nM incubated for 6 to 48 hrs by RNA analysis; type: functional, cell-based; details: dose 10-500 nM, time 6-48 hrs
[19] = tested on: HCT-116; test: Induction of apoptosis in human HCT-116 cells assessed as downregulation of ADSL gene expression at 10 to 500 nM incubated for 6 to 48 hrs by RNA analysis; type: functional, cell-based; details: dose 10-500 nM, time 6-48 hrs
[20] = tested on: HCT-116; test: Induction of apoptosis in human HCT-116 cells assessed as upregulation of ADA mRNA expression at 10 to 500 nM incubated for 6 to 48 hrs by RNA analysis; type: functional, cell-based; details: dose 10-500 nM, time 6-48 hrs
[21] = tested on: HCT-116; test: Induction of apoptosis in human HCT-116 cells assessed as modulation of DDX6 mRNA expression at 10 to 500 nM incubated for 6 to 48 hrs by RNA analysis; type: functional, cell-based; details: dose 10-500 nM, time 6-48 hrs
[22] = tested on: HCT-116; test: Induction of apoptosis in human HCT-116 cells assessed as downregulation of TPI1 gene expression at 10 to 500 nM incubated for 6 to 48 hrs by RNA analysis; type: functional, cell-based; details: dose 10-500 nM, time 6-48 hrs
[23] = tested on: HCT-116; test: Induction of apoptosis in human HCT-116 cells assessed as downregulation of NUP210 gene expression at 10 to 500 nM incubated for 6 to 48 hrs by RNA analysis; type: functional, cell-based; details: dose 10-500 nM, time 6-48 hrs
[24] = tested on: HCT-116; test: Induction of apoptosis in human HCT-116 cells assessed as downregulation of SEH1L gene expression at 10 to 500 nM incubated for 6 to 48 hrs by RNA analysis; type: functional, cell-based; details: dose 10-500 nM, time 6-48 hrs
[25] = tested on: HCT-116; test: Activation of innate immune response in human HCT-116 cells assessed as upregulation of IRF7 gene expression at 10 to 500 nM incubated for 6 to 48 hrs by RNA analysis; type: functional, cell-based; details: dose 10-500 nM, time 6-48 hrs
[26] = tested on: HCT-116; test: Induction of apoptosis in human HCT-116 cells assessed as downregulation of HPRT1 gene expression at 10 to 500 nM incubated for 6 to 48 hrs by RNA analysis; type: functional, cell-based; details: dose 10-500 nM, time 6-48 hrs
[27] = tested on: HCT-116; test: Induction of apoptosis in human HCT-116 cells assessed as modulation of DDX17 mRNA expression at 10 to 500 nM incubated for 6 to 48 hrs by RNA analysis; type: functional, cell-based; details: dose 10-500 nM, time 6-48 hrs
[28] = tested on: HCT-116; test: Induction of apoptosis in human HCT-116 cells assessed as downregulation of SLC25A13 gene expression at 10 to 500 nM incubated for 6 to 48 hrs by RNA analysis; type: functional, cell-based; details: dose 10-500 nM, time 6-48 hrs
[29] = tested on: HCT-116; test: Induction of apoptosis in human HCT-116 cells assessed as modulation of TOP2A mRNA expression at 10 to 500 nM incubated for 6 to 48 hrs by RNA analysis; type: functional, cell-based; details: dose 10-500 nM, time 6-48 hrs
[30] = tested on: HCT-116; test: Induction of apoptosis in human HCT-116 cells assessed as downregulation of PRIM1 mRNA expression at 10 to 500 nM incubated for 6 to 48 hrs by RNA analysis; type: functional, cell-based; details: dose 10-500 nM, time 6-48 hrs
[31] = tested on: HCT-116; test: Induction of apoptosis in human HCT-116 cells assessed as modulation of DDX18 mRNA expression at 10 to 500 nM incubated for 6 to 48 hrs by RNA analysis; type: functional, cell-based; details: dose 10-500 nM, time 6-48 hrs
[32] = tested on: HCT-116; test: Induction of apoptosis in human HCT-116 cells assessed as downregulation of END1 gene expression at 10 to 500 nM incubated for 6 to 48 hrs by RNA analysis; type: functional, cell-based; details: dose 10-500 nM, time 6-48 hrs
[33] = tested on: PDX27454; test: Antitumor activity against human PDX27454 cells xenografted in SCID mouse model assessed as reduction in tumor volume at 2 mg/kg,po administrated once per week for 3 weeks; type: functional, organism-based
[34] = tested on: HCT-116; test: Induction of apoptosis in human HCT-116 cells assessed as downregulation of MCL-1 protein expression incubated for 48 hrs by Western blotting analysis; type: functional, cell-based

Row | SMILES | Activity [1] | Activity [2] | Activity [3] | Activity [4] | IC50 [5] | Activity [6] | Activity [7] | Activity [8] | Activity [9] | Activity [10] | Activity [11] | Activity [12] | Activity [13] | IC50 [14] | IC50 [15] | Activity [16] | Activity [17] | Activity [18] | Activity [19] | Activity [21] | also measured
1 | CC[C@@]1(O)C(=O)OCc2c1cc1n(c2=O)Cc2cc3cc4c(cc3nc2-1)OCO4 | Active | Active | Active | Active | 32.4 nM | Active | Dose-Dependent Effect | Active | Active | Active | Active | Active | Active | 23.5 nM | 32.2 nM | Active | Active | Active | Active | Active | Activity [20]: Active; Activity [22]: Active; Activity [23]: Active; Activity [24]: Active; Activity [25]: Active; Activity [26]: Active; Activity [27]: Active; Activity [28]: Active; Activity [29]: Active; Activity [30]: Active; Activity [31]: Active; Activity [32]: Active
2 | CC[C@@]1(O)C(=O)OCc2c1cc1n(c2=O)Cc2c-1nc1cc3c(cc1c2-c1cc(OC)cc(OC)c1)OCO3 | Active | Active | Active | Active | < 6.4 nM | Active | Dose-Dependent Effect | Active | Active | Active | Active | Active | Active | 99.4 nM | < 6.4 nM | Active | Active | Active | Active | Active | Activity [33]: Active; Activity [34]: Active; Activity [22]: Active; Activity [23]: Active; Activity [24]: Active; Activity [25]: Active; Activity [27]: Active; Activity [28]: Active; Activity [29]: Active; Activity [30]: Active; Activity [31]: Active; Activity [32]: Active
